Assay results published in patent publication US11401243B2, “Quinoline derived small molecule inhibitors of nicotinamide N-methyltransferase (NNMT) and uses thereof” (priority 2017, dated 2022).

Columns and labels:
[1] = system: NNMT activity in 3T3-L1 pre-adipocytes and differentiated adipocytes; assay: Quantitative measurement of NNMT reaction product 1-MNA in cultured cells (LC/MS/MS); type: cell-based; conditions: for intracellular levels of 1-MNA: 30 μM
Description: Differentiation of 3T3-L1 pre-adipocytes. […] Briefly, standard culture media was supplemented with scheduled addition of adipogenic agents [3-isobutyl-1methyl xanthine (IBMX), Sigma Aldrich; MO, USA), dexamethasone (Sigma Aldrich; MO, USA), insulin (Gibco Life Technologies Inc.; Grand Island, N.Y., USA)] over 10 days to promote differentiation of 3T3-L1 fibroblasts into adipocytes; a combination of 1 mM IBMX, 1 μM dexamethasone, and 10 μg/ml of insulin in media were added to fully confluent 3T3-L1 fibroblasts for three days (days 0-3) to initiate differentiation. At day 3, the media was replaced with culture media supplemented with insulin (10 μg/ml). After day 6, cells were maintained in culture media until described experiments were begun (days 8-10).
Cellular 1-MNA concentrations were determined using an ultra-sensitive high-resolution AB Sciex 6500 Q-trap mass spectrometer coupled to an Agilent 1260 ultra-high pressure liquid chromatography (LC/MS/MS) system. Using multiple reaction monitoring (MRM) positive ion mode, the 1-MNA NNMT reaction product was quantified from peak area ratios using AB Sciex Analyst and MultiQuant 2.1 software and the parent precursor and Q3 masses set to m/z 137.1 and 94.1, respectively. Fragment ions at m/z of 92.1 and 77.9 were additionally used for the detection and confirmation of 1-MNA, respectively. […]. To determine the effect of NNMT inhibitor on NNMT activity in the pre-adipocytes and differentiated adipocytes (8×10^4 cells/well seeded prior to beginning differentiation), cells were treated with 30 μM inhibitor for 24 h. Similarly, to compare the relative effects of multiple NNMT inhibitors on NNMT activity in cultured adipocytes, differentiated adipocytes in 6-well plates were treated with 10 μM test compound for 24 h. Following treatment, media was replaced with 80% (v/v) methanol (cooled to −80° C.) containing 500 nmol 6-chloronicotinamide (6-CN) as an internal standard (IS) to extract cellular metabolites. Adherent cells were scrapped, then centrifuged at 4° C. and 13000 g for 15 min, and the resulting supernatants processed using established protocols. […]. Data were subsequently normalized to the IS peak area and transformed as % control values for cross-sample comparisons. […] Choice of inhibitor concentrations and time period was chosen based on the results from the MTT studies.

[2] = target: recombinant human NAMPT enzyme (Homo sapiens, UniProt P43490); assay: NAMPT activity assay (fluorometric); type: biochemical
recombinant human NAMPT enzyme, sequence (P43490 whole entry): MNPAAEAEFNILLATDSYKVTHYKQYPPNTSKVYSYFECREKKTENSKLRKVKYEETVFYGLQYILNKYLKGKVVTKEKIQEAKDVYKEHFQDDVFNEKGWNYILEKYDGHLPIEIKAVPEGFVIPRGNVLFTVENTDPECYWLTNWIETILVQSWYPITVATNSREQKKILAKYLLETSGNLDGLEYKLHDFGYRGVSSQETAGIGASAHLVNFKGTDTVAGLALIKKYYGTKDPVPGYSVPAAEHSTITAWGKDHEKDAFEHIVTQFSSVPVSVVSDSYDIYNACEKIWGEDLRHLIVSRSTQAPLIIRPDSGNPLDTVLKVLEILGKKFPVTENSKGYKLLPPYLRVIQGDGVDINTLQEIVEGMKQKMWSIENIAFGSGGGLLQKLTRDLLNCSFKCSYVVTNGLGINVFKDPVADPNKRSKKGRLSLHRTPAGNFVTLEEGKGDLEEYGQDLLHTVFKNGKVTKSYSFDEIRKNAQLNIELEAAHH

[3] = target: T1, recombinant human SIRT-1 (NAD+-dependent) enzyme (Homo sapiens, UniProt Q96EB6); assay: SIRT-1 activity assay (fluorometric); type: biochemical
T1 construct: Reaction Biology Corporation (ran the assay)
T1 sequence (Q96EB6 1-747): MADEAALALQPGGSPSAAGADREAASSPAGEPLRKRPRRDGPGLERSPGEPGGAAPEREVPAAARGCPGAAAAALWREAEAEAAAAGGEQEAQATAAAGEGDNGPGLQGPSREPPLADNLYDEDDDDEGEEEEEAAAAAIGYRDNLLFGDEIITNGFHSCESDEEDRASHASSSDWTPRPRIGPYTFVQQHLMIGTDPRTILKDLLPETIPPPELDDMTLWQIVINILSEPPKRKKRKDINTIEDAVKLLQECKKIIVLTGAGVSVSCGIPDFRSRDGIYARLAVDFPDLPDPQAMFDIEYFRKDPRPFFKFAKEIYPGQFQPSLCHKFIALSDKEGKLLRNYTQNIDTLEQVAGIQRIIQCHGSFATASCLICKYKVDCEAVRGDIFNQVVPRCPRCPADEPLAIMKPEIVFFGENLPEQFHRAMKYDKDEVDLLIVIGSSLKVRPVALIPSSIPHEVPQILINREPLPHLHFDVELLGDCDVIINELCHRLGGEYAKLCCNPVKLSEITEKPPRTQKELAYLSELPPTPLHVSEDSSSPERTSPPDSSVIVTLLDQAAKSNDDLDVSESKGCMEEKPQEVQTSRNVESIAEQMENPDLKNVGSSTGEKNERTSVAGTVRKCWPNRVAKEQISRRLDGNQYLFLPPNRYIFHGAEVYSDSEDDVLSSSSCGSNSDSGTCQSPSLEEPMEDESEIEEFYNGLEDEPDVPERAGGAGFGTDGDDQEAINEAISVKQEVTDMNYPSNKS

C[n+]1cccc2c(N)cccc21 [1j, 5-amino-1-methylquinolin-1-ium iodide]
1-MNA levels in differentiated adipocytes relative to control ([1]; 10 μM, 24 h): significantly decreased | EC50 ([1]; Mus musculus, 3T3-L1, 24 h, 0.3-60 μM, 3-parameter sigmoidal fit, read-out: EC50 for inhibition of NNMT (intracellular 1-MNA) in fully differentiated adipocytes): 2.3 µM | intracellular levels of 1-MNA ([1]; adipocytes, 24 h): significant reduction | relative intracellular 1-MNA levels, % of level in untreated adipocytes ([1]; inhibitor concentrations 10-60 μM): ~40% | intracellular levels of 1-MNA ([1]; pre-adipocytes, 24 h): significant reduction | IC50 ([2]; concentrations above 100 μM could not be tested (assay interference), read-out: IC50, Nicotinamide phosphoribosyl transferase): > 100 µM | inhibition of NAMPT (in words) ([2]; up to 100 μM): did not inhibit | inhibition of SIRT1 (in words) ([3]; 10 nM-300 μM): did not inhibit | SIRT1 activity (in words) ([3]; 600 μM): minor reduction in SIRT1 activity
